Laboratory results from patent US8258258B2, “Dimeric or multimeric microproteins” (BioNTech AG, priority 2005, dated 2012).

Each substance was assayed on TPOR/4Rα hybrid receptor (assay: Ba/F3 luciferase reporter gene assay, TPO competition (antagonist activity)). Conditions: 5 nM TPO and 500 nM of each compound; FIG. 3.
Format: cell-based, human
Experimental: The expression vector for the TPOR/4Rα hybrid receptor, pcDNATPOR/4Rα, was constructed as follows. A PCR reaction was performed on a cDNA clone containing the human TPO receptor coding sequence using oligonucleotides TpoR-Xho-lo (5′-[…]-3′; SEQ ID NO.: 18) and TpoR-Xho-up (5′-[…]-3′; SEQ ID No.: 19). The resulting PCR product was digested with XhoI and ligated into similarly digested vector pASKcDNA-NH to yield pASKcDNA-NH-TPOR. pASKcDNA-NH resulted from the subcloning of an NheI/HindIII fragment of pcDNA/4Rα (Krause et al., 2004) in pASK21TETIsendc1/2 (Christmann et al., 1999). From the vector pASKcDNA-NH-TPOR the NheI/HindIII fragment containing the TPOR coding sequence was ligated to similarly digested pcDNA/4Rα to yield pcDNATPOR/4Rα. The STAT6 reporter gene construct pIεTATALuc was generated by insertion of a synthetic Hind III/Bam HI fragment representing the entire promoter/enhancer-sequence from the IL-4 responsive region of the human Iε promoter (Ezernieks et al., 1996) into luciferase expression plasmid pTATALuc+ (Altschmied et al., 1997).
The murine pre-B cell line Ba/F3 was cultured as described (Lischke et al., 1995). Cells were transfected using the cell line Nucleofector™ kit V (Amaxa, Germany). Briefly, 8×10^6 cells were starved for 2 h in RPMI 1640/10% FCS, centrifuged and resuspended in 100 μl of transfection reagent V supplemented with 4 μg of expression vector pcDNATPOR/4Rα and 1 μg of reporter gene construct pIεTATALuc. Transfection was performed with the Nucleofector™ device applying program T16. Each transfection batch was recovered in 3.5 ml RPMI 1640/10% FCS and seeded at 2×10^5 cells/100 μl per well in a 96-well cell culture plate. Cells were left untreated for 1 h and then supplemented with various concentrations of hTPO (Immunotools, Germany) and individual microprotein candidates, respectively, to a total volume of 200 μl. For TPO competition assays cell aliquots were preincubated with individual microprotein samples 1 hour before stimulation with hTPO. After incubation for 12 h at 37° C., 5% CO2, cell lysates were prepared and luciferase activity was measured as described previously (Krause et al., 2004).
These cells were transfected with a gene encoding a fusion of the hTPOR extracellular domain and the intracellular 4Rα domain from human […] and co-transfected with a reporter gene construct pIεTATALuc (Krause et al., 2004). […] The same result was obtained for SE-AG-TP-040 in some assays. On the other hand, agonistic activity was shown for all the microproteins so far tested (Table 1).

TPOR/4Rα hybrid receptor, sequence (P40238 26-491 limits assumed): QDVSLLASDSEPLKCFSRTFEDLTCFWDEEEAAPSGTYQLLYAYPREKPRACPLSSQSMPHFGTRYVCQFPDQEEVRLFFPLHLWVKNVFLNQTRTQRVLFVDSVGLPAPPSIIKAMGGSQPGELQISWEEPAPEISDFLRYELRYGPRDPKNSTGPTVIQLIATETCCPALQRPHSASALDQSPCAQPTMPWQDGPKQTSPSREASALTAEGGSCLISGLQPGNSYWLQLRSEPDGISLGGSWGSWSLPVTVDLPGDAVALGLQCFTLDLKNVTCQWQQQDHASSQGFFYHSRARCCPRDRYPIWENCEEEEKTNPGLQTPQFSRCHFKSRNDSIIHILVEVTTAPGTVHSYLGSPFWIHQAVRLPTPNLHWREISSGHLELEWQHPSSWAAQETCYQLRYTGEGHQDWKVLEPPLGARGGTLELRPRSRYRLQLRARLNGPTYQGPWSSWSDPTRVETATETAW

Substance | Inhibition of TPO receptor activation (TPO antagonist)
GCVRLHESCLGQQVPCCDPAATCGGTALAiegptlrqwlaaraCKGS (GCVRLHESCLGQQVPCCDPAATCGGTALAIEGPTLRQWLAARACKGS) [SE-AG-TP-040] | able to act as TPO antagonists
GCVRLHESCLGQQVPCCDPAATCiegptlrqwlaaraCKGS (GCVRLHESCLGQQVPCCDPAATCIEGPTLRQWLAARACKGS) [SE-AG-TP-030] | able to act as TPO antagonists
GCiegptlrqwlaaCKQDSDCLAGCVCGPNGFCGS (GCIEGPTLRQWLAACKQDSDCLAGCVCGPNGFCGS) [SE-ET-TP-030] | able to act as TPO antagonists
GCiegptlrqwlaaraCKQDSDCLAGCVCGPNGFCGS (GCIEGPTLRQWLAARACKQDSDCLAGCVCGPNGFCGS) [SE-ET-TP-020] | able to act as TPO antagonists
iegptlrqwlaara (IEGPTLRQWLAARA) [SE-LN-TP-020, reference compound] | able to act as TPO antagonists

The substances below were run on platelet count (assay: In vivo platelet expansion test). Conditions: Balb/c mice, 10 and 1000 μg/kg twice daily s.c., after 5 days; FIG. 7.
Experimental: To assess the in vivo function of SE-ET-TP-020, Balb/c mice (n=5) were treated twice daily with 10 and 1000 μg/kg, respectively, SE-ET-TP-020 by subcutaneous injection. After 5 days, platelet count was measured in comparison to corresponding placebo experiments.

Substance | Platelet count versus placebo
GCiegptlrqwlaaraCKQDSDCLAGCVCGPNGFCGS (GCIEGPTLRQWLAARACKQDSDCLAGCVCGPNGFCGS) [SE-ET-TP-020] | doubling of the platelet count
